# Experimental data: ChEMBL document CHEMBL5543114, “Chimeric NOD2 Mincle Agonists as Vaccine Adjuvants” (J Med Chem, 2024)
# Active and inactive are the calls of the source. No cut-off for these calls is given here.
# Legend:
# BMDM [1] = assay: Induction of IL-23 production in C57BL/6 mouse BMDM cells at 2 ug/ml incubated for 48 hrs in presence of 1 nmol [(2R,3S,4S,5R,6R)-3,4,5-trihydroxy-6-[(3R,4S,5S,6R)-3,4,5-trihydroxy-6-[(4-octadecoxybenzoyl)oxymethyl]tetrahydropyran-2-yl]oxy-tetrahydropyran-2-yl]methyl 4-octadecoxybenzoate by ELISA; format: functional, cell-based; details: dose 2.0 µg/ml
# 2B4 = assay: Induction of NFAT-GFP signal in mouse 2B4 reporter cells expressing mMincle + FcRgamma at 0.1 to 1 nmol incubated for 18 hrs by flow cytometry analysis; format: functional, cell-based; details: dose 0.1-1 nmol
# HEK293 [2] = assay: Induction of IL-8 production in HEK293 cells expressing mouse NOD2 at 5 to 50 uM incubated for 20 hrs by ELISA; format: functional, cell-based; details: Homo sapiens, dose 5-50 µM
# HEK293 [3] = assay: Induction of IL-8 production in HEK293 cells expressing mouse NOD2 at 5 to 50 uM incubated for 20 hrs in presence of 10 to 100 uM (4R)-4-[[(2S)-2-[[(2R)-2-[(3R,4R,5S,6R)-3-acetamido-2,5-dihydroxy-6-(hydroxymethyl)tetrahydropyran-4-yl]oxypropanoyl]amino]propanoyl]amino]-5-amino-5-oxo-pentanoic acid by ELISA; format: functional, cell-based; details: Homo sapiens, dose 5-50 µM
# Splenocyte [4] = assay: Improvement in memory response in ovalbumin immunized C57BL/6 mouse splenocytes assessed as increase in IFNgamma level incubated for 72 hrs in presence of (4R)-4-[[(2S)-2-[[(2R)-2-[(3R,4R,5S,6R)-3-acetamido-2,5-dihydroxy-6-(hydroxymethyl)tetrahydropyran-4-yl]oxypropanoyl]amino]propanoyl]amino]-5-amino-5-oxo-pentanoic acid by ELISA; format: functional, cell-based
# [5] = Toxicity in ovalbumin immunized C57BL/6 mouse assessed as reactogenicity boosted with OVA at 1 week and measured after week 3, 4, 5 and 6 in presence of (4R)-4-[[(2S)-2-[[(2R)-2-[(3R,4R,5S,6R)-3-acetamido-2,5-dihydroxy-6-(hydroxymethyl)tetrahydropyran-4-yl]oxypropanoyl]amino]propanoyl]amino]-5-amino-5-oxo-pentanoic acid; details: in vivo, 1008 h, time 6 weeks
# Mus musculus [6] = species on record: Mus musculus; assay: Adjuvanticity in ovalbumin immunized C57BL/6 mouse assessed as increase in anti-OVA IgG titers boosted with OVA at 1 week and measured after week 3, 4, 5 and 6 in presence of (4R)-4-[[(2S)-2-[[(2R)-2-[(3R,4R,5S,6R)-3-acetamido-2,5-dihydroxy-6-(hydroxymethyl)tetrahydropyran-4-yl]oxypropanoyl]amino]propanoyl]amino]-5-amino-5-oxo-pentanoic acid by ELISA; format: functional, organism-based; details: time 6.0 weeks
# BMDM [7] = assay: Induction of IL-1beta production in C57BL/6 mouse BMDM cells at 2 ug/ml incubated for 48 hrs in presence of 1 nmol [(2R,3S,4S,5R,6R)-3,4,5-trihydroxy-6-[(3R,4S,5S,6R)-3,4,5-trihydroxy-6-[(4-octadecoxybenzoyl)oxymethyl]tetrahydropyran-2-yl]oxy-tetrahydropyran-2-yl]methyl 4-octadecoxybenzoate by ELISA; format: functional, cell-based; details: dose 2.0 µg/ml
# HEK293 [8] = assay: Induction of IL-8 production in HEK293 cells expressing mouse NOD2 at 10 to 100 uM incubated for 20 hrs in presence of 5 to 50 uM [(2R,3S,4S,5R,6R)-3,4,5-trihydroxy-6-[(3R,4S,5S,6R)-3,4,5-trihydroxy-6-[(4-octadecoxybenzoyl)oxymethyl]tetrahydropyran-2-yl]oxy-tetrahydropyran-2-yl]methyl 4-octadecoxybenzoate by ELISA; format: functional, cell-based; details: Homo sapiens, dose 10-100 µM
# HEK293 [9] = assay: Induction of IL-8 production in HEK293 cells expressing mouse NOD2 at 10 to 100 uM incubated for 20 hrs in presence of 5 to 50 uM 6,6'-Di-0-(2,4-bis(octadecyloxy)benzoyl)-alpha,alpha'-D-trehalose by ELISA; format: functional, cell-based; details: Homo sapiens, dose 10-100 µM
# Splenocyte [10] = assay: Improvement in memory response in ovalbumin immunized C57BL/6 mouse splenocytes assessed as increase in IFNgamma level incubated for 72 hrs in presence of 6,6'-Di-0-(2,4-bis(octadecyloxy)benzoyl)-alpha,alpha'-D-trehalose by ELISA; format: functional, cell-based
# Splenocyte [11] = assay: Improvement in memory response in ovalbumin immunized C57BL/6 mouse splenocytes assessed as increase in IFNgamma level incubated for 72 hrs in presence of [(2R,3S,4S,5R,6R)-3,4,5-trihydroxy-6-[(3R,4S,5S,6R)-3,4,5-trihydroxy-6-[(4-octadecoxybenzoyl)oxymethyl]tetrahydropyran-2-yl]oxy-tetrahydropyran-2-yl]methyl 4-octadecoxybenzoate by ELISA; format: functional, cell-based
# Mus musculus [12] = species on record: Mus musculus; assay: Adjuvanticity in ovalbumin immunized C57BL/6 mouse assessed as increase in anti-OVA IgG titers boosted with OVA at 1 week and measured after week 3, 4, 5 and 6 in presence of 6,6'-Di-0-(2,4-bis(octadecyloxy)benzoyl)-alpha,alpha'-D-trehalose by ELISA; format: functional, organism-based; details: time 6.0 weeks
# [13] = Toxicity in ovalbumin immunized C57BL/6 mouse assessed as reactogenicity boosted with OVA at 1 week and measured after week 3, 4, 5 and 6 in presence of 6,6'-Di-0-(2,4-bis(octadecyloxy)benzoyl)-alpha,alpha'-D-trehalose; details: in vivo, 1008 h, time 6 weeks
# BMDM [14] = assay: Induction of IL-23 production in C57BL/6 mouse BMDM cells at 2.5 ug/ml incubated for 48 hrs in presence of 1 nmol [(2R,3S,4S,5R,6R)-3,4,5-trihydroxy-6-[(3R,4S,5S,6R)-3,4,5-trihydroxy-6-[(4-octadecoxybenzoyl)oxymethyl]tetrahydropyran-2-yl]oxy-tetrahydropyran-2-yl]methyl 4-octadecoxybenzoate by ELISA; format: functional, cell-based; details: dose 2.5 µg/ml
# BMDM [15] = assay: Induction of IL-1beta production in C57BL/6 mouse BMDM cells at 1 nmol per well incubated for 48 hrs in presence of 2 ug/ml (4R)-4-[[(2S)-2-[[(2R)-2-[(3R,4R,5S,6R)-3-acetamido-2,5-dihydroxy-6-(hydroxymethyl)tetrahydropyran-4-yl]oxypropanoyl]amino]propanoyl]amino]-5-amino-5-oxo-pentanoic acid by ELISA; format: functional, cell-based
# BMDM [16] = assay: Induction of IL-23 production in C57BL/6 mouse BMDM cells at 1 nmol per well incubated for 48 hrs in presence of 2ug/ml (4R)-4-[[(2S)-2-[[(2R)-2-[(3R,4R,5S,6R)-3-acetamido-2,5-dihydroxy-6-(hydroxymethyl)tetrahydropyran-4-yl]oxypropanoyl]amino]propanoyl]amino]-5-amino-5-oxo-pentanoic acid by ELISA; format: functional, cell-based
# BMDM [17] = assay: Induction of IL-23 production in C57BL/6 mouse BMDM cells at 1 nmol per well incubated for 48 hrs in presence of 2.5 ug/ml (2R,6S)-2-amino-6-[[(4R)-4-amino-4-carboxy-butanoyl]amino]heptanedioic acid by ELISA; format: functional, cell-based
# BMDM [18] = assay: Induction of IL-23 production in C57BL/6 mouse BMDM cells at 1 nmol per well incubated for 48 hrs in presence of 2 ug/ml murabutide by ELISA; format: functional, cell-based
# [19] = Drug hydrolysis in water at pH 7 assessed as half life by HPLC-UV analysis; format: physicochemical; details: buffer
# [20] = Drug hydrolysis in water at pH 4.4 assessed as half life by HPLC-UV analysis; format: physicochemical
# [21] = Drug hydrolysis in water at pH 1 assessed as half life by HPLC-UV analysis; format: physicochemical
# BMDM [22] = assay: Induction of IL-1beta production in C57BL/6 mouse BMDM at 1 nmol incubated for 48 hrs by ELISA; format: functional, cell-based
# BMDM [23] = assay: Induction of IL-6 production in C57BL/6 mouse BMDM at 1 nmol incubated for 48 hrs by ELISA; format: functional, cell-based
# BMDM [24] = assay: Induction of IL-23 production in C57BL/6 mouse BMDM at 1 nmol incubated for 48 hrs by ELISA; format: functional, cell-based
# Splenocyte [25] = assay: Improvement in memory response in ovalbumin immunized C57BL/6 mouse splenocytes assessed as increase in IFNgamma level incubated for 72 hrs by ELISA; format: functional, cell-based
# Mus musculus [26] = species on record: Mus musculus; assay: Adjuvanticity in ovalbumin immunized C57BL/6 mouse assessed as increase in anti-OVA IgG titers at 40 nmol boosted with OVA at 1 week and measured after week 4, 5, 6 by ELISA; format: functional, organism-based; details: time 6.0 weeks
# [27] = Toxicity in ovalbumin immunized C57BL/6 mouse assessed as body weight loss at 40 nmol boosted with OVA at 1 week and measured after week 3, 4, 5 and 6; details: in vivo, 1008 h, time 6 weeks
# BMDM [28] = assay: Induction of IL-1beta production in C57BL/6 mouse BMDM cells at 1 nmol per well incubated for 24 hrs by ELISA; format: functional, cell-based
# BMDM [29] = assay: Induction of MIP-2 production in C57BL/6 mouse BMDM cells at 1 nmol per well incubated for 24 hrs by ELISA; format: functional, cell-based
# BMDM [30] = assay: Induction of IL-6 production in C57BL/6 mouse BMDM cells at 1 nmol per well incubated for 24 hrs by ELISA; format: functional, cell-based
smiles,measurement,setting,value
CCCCOC(=O)[C@@H](CCC(N)=O)NC(=O)[C@H](C)NC(=O)[C@@H](C)O[C@H]1[C@H](O)[C@@H](CO)OC(O)[C@@H]1NC(C)=O (stereo not given in full),Activity,BMDM [1],inactive
CCCCCCCCCCCCCCCCCCOc1ccc(C(=O)OC[C@H]2O[C@H](O[C@H]3O[C@H](COC(=O)c4ccc(OCCCCCCCCCCCCCCCCCC)cc4OCCCCCCCCCCCCCCCCCC)[C@@H](O)[C@H](O)[C@H]3O)[C@H](O)[C@@H](O)[C@@H]2O)c(OCCCCCCCCCCCCCCCCCC)c1,Activity,2B4,Active
same,Activity,HEK293 [2],inactive
same,Activity,HEK293 [3],Active
same,Activity,Splenocyte [4],inactive
same,Activity,[5],Toxic
same,Activity,Mus musculus [6],Active
CC(=O)N[C@@H]1[C@@H](O[C@H](C)C(=O)N[C@@H](C)C(=O)N[C@H](CCC(=O)O)C(N)=O)[C@H](O)[C@@H](CO)O[C@H]1O [MURAMYL DIPEPTIDE],Activity,BMDM [7],Active
same,Activity,BMDM [1],Active
same,Activity,HEK293 [8],Active
same,Activity,HEK293 [9],Active
same,Activity,Splenocyte [10],inactive
same,Activity,Splenocyte [11],Active
same,Activity,Mus musculus [12],Active
same,Activity,[13],Toxic
N[C@H](CCC[C@H](NC(=O)CC[C@@H](N)C(=O)O)C(=O)O)C(=O)O,Activity,BMDM [14],inactive
CONCCCn1cc(CCCCCCCCCCCCCCCCCOc2ccc(C(=O)OC[C@H]3O[C@H](O[C@H]4O[C@H](COC(=O)c5ccc(OCCCCCCCCCCCCCCCCCc6cn(CCCNOC)nn6)cc5)[C@@H](O)[C@H](O)[C@H]4O)[C@H](O)[C@@H](O)[C@@H]3O)cc2)nn1,Activity,2B4,Active
CCCCCCCCCCCCCCCCCCOc1ccc(C(=O)OC[C@H]2O[C@H](O[C@H]3O[C@H](COC(=O)c4ccc(OCCCCCCCCCCCCCCCCCC)cc4)[C@@H](O)[C@H](O)[C@H]3O)[C@H](O)[C@@H](O)[C@@H]2O)cc1,Activity,BMDM [15],Active
same,Activity,BMDM [16],Active
same,Activity,BMDM [17],inactive
same,Activity,BMDM [18],inactive
same,Activity,2B4,Active
same,Activity,HEK293 [2],inactive
same,Activity,HEK293 [3],Active
same,Activity,Splenocyte [4],Active
CON(CCCn1cc(CCCCCCCCCCCCCCCCCOc2ccc(C(=O)OC[C@H]3OC(O[C@H]4O[C@H](COC(=O)c5ccc(OCCCCCCCCCCCCCCCCCc6cn(CCCN(OC)[C@H]7O[C@@H](CO)[C@H](O)[C@@H](O[C@H](C)C(=O)N[C@@H](C)C(=O)N[C@H](CCC(=O)O)C(N)=O)[C@@H]7NC(C)=O)nn6)cc5)[C@@H](O)[C@H](O)[C@H]4O)[C@H](O)[C@@H](O)[C@@H]3O)cc2)nn1)[C@@H]1O[C@@H](CO)[C@H](O)[C@@H](O[C@H](C)C(=O)N[C@@H](C)C(=O)N[C@H](CCC(=O)O)C(N)=O)[C@@H]1NC(C)=O (stereo not given in full),Activity,2B4,Active
same,Activity,HEK293 [2],Active
same,t1/2,[19],1 yr
same,half-life,[20],60 h
same,half-life,[21],1 h
same,Activity,BMDM [22],Active
same,Activity,BMDM [23],Active
same,Activity,BMDM [24],Active
same,Activity,Splenocyte [25],Active
same,Activity,Mus musculus [26],Active
same,Activity,[27],Non-Toxic
CCCCCCCCCCCCCCCCCCOc1ccc(C(=O)OC[C@H]2O[C@H](O[C@H]3O[C@H](COC(=O)c4ccc(OCCCCCCCCCCCCCCCCCC)cc4OCc4cn(CCCN(OC)[C@@H]5O[C@H](CO)[C@@H](O)[C@H](O)[C@H]5NC(C)=O)nn4)[C@@H](O)[C@H](O)[C@H]3O)[C@H](O)[C@@H](O)[C@@H]2O)c(OCc2cn(CCCN(OC)[C@@H]3O[C@H](CO)[C@@H](O)[C@H](O)[C@H]3NC(C)=O)nn2)c1,Activity,BMDM [28],inactive
same,Activity,BMDM [29],inactive
same,Activity,BMDM [30],inactive
CCCCCCCCCCCCCCCCCCCCCC(=O)OC[C@@H]1O[C@H](O[C@H]2O[C@H](COC(=O)CCCCCCCCCCCCCCCCCCCCC)[C@@H](O)[C@H](O)[C@H]2O)[C@@H](O)[C@H](O)[C@H]1O,Activity,HEK293 [2],inactive
